Test results: ChEMBL document CHEMBL3507680, “University of Dundee, Gates Library screen for HepG2 cell viability”

Assay: Human HepG2 cell viability assay in 384 well format
Type: toxicity, cell-based
Set-up: dose 125 nL, time 70.5 hour; cytotoxicity at 70.5 h: concentration not given beside the values
Conditions: HepG2 cells, read-out: Inhibition

For `N[C@H]1CC[C@@H](n2cc(C(=O)NC3COc4ccccc43)nn2)CC1` (stereo partly specified), which cytotoxicity at 70.5 h is on record?
Its cytotoxicity at 70.5 h is -0.524%.

Which cytotoxicity at 70.5 h does the source give for `c1cncc(Cc2nnc3n2CCN(CC2CCOC2)CC3)c1` (stereo unspecified) here?
Its cytotoxicity at 70.5 h is -10.7%.

Which cytotoxicity at 70.5 h does the source give for `COCCN(C)C[C@H]1C[C@@H](CO)CN(C(=O)c2ccn(C)c(=O)c2)C1` here?
Its cytotoxicity at 70.5 h is -8.04%.

With `c1cncc(OCc2nc(C3CC3)nn2-c2ccc3c(c2)OCCO3)c1` as the compound, how does the cytotoxicity at 70.5 h read?
The cytotoxicity at 70.5 h was 14.2%.

With `C[C@@H]1CN(C(=O)CCc2nncn2C)CC[C@@]1(O)C1CCC1` as the compound, how does the cytotoxicity at 70.5 h read?
Its cytotoxicity at 70.5 h is -5.47%.

For `N#Cc1ccnc(NCc2cc3n(n2)CCCN(C(=O)C2CCC2)C3)c1`, which cytotoxicity at 70.5 h is on record?
Its cytotoxicity at 70.5 h is 1.71%.

With `CCOCCC(=O)N1C[C@H]2CC[C@@H]1CN(c1ncccn1)C2` as the compound, how does the cytotoxicity at 70.5 h read?
The cytotoxicity at 70.5 h was -5.84%.

Which cytotoxicity at 70.5 h does the source give for `CC(C)N1CCN(C(=O)c2csc3nc(-c4ccc(Cl)cc4)cn23)CC1` here?
Its cytotoxicity at 70.5 h is -16.3%.

With `CCN(Cc1ccncc1)Cc1cn(-c2ccccc2)nn1` as the compound, how does the cytotoxicity at 70.5 h read?
Its cytotoxicity at 70.5 h is -10.2%.

With `Cc1ccc(Cl)c(CN2CCC(c3nccn3C(C)C)CC2)c1F` as the compound, how does the cytotoxicity at 70.5 h read?
The cytotoxicity at 70.5 h was -1.48%.

Which cytotoxicity at 70.5 h does the source give for `Cc1ccccc1N1CCCN(CC2(O)CCCNC2)CC1` (stereo unspecified) here?
Its cytotoxicity at 70.5 h is 20.3%.

For `OCC1COCCN(c2ncccc2C(F)(F)F)C1` (stereo unspecified), which cytotoxicity at 70.5 h is on record?
The cytotoxicity at 70.5 h was 3.25%.

Which cytotoxicity at 70.5 h does the source give for `COc1cccc2c1OCC(C(=O)N1CCC(N3CCSCC3)CC1)C2` (stereo unspecified) here?
The cytotoxicity at 70.5 h was 4.8%.

With `O=C(c1ccc2c(c1)CCO2)N1CCN(c2ccc(Cl)cn2)CC1` as the compound, how does the cytotoxicity at 70.5 h read?
The cytotoxicity at 70.5 h was -0.811%.

For `Cc1cc(-c2cccc(-c3ccn(CCCO)n3)c2)nc(N(C)C)n1`, which cytotoxicity at 70.5 h is on record?
Its cytotoxicity at 70.5 h is -5.08%.

With `CN1CCN([C@H]2CCN(C(=O)c3cc(Cl)cn3C)C[C@H]2CCCO)CC1` as the compound, how does the cytotoxicity at 70.5 h read?
The cytotoxicity at 70.5 h was -14.3%.

For `Cc1cccc(-c2nccn2C2CC(=O)N(C(C)C)C2)n1` (stereo unspecified), which cytotoxicity at 70.5 h is on record?
Its cytotoxicity at 70.5 h is 0.181%.

Which cytotoxicity at 70.5 h does the source give for `CCN1CCCC1CN(Cc1ccoc1)CC1CCN(CCOC)CC1` (stereo unspecified) here?
Its cytotoxicity at 70.5 h is -3.24%.

Which cytotoxicity at 70.5 h does the source give for `CN(CCO)Cc1nnc(C2CCN(C(=O)c3ccccc3)CC2)n1C` here?
The cytotoxicity at 70.5 h was 0.129%.

For `Cc1cccc(CN2CCN(C(=O)[C@@H]3CSCN3C)CC2)c1`, which cytotoxicity at 70.5 h is on record?
Its cytotoxicity at 70.5 h is -13.3%.

With `CC(C)CCC(=O)N1CCCC2(CCN(Cc3ccccc3C#N)C2)C1` (stereo unspecified) as the compound, how does the cytotoxicity at 70.5 h read?
Its cytotoxicity at 70.5 h is -5.13%.

With `O=S1(=O)COCCN1Cc1ccc(F)cc1Cl` as the compound, how does the cytotoxicity at 70.5 h read?
The cytotoxicity at 70.5 h was -9.29%.

For `Cc1cccc(C)c1-c1cc(NCCO)nc2[nH]ccc12`, which cytotoxicity at 70.5 h is on record?
The cytotoxicity at 70.5 h was -11.1%.

With `O=C(N[C@@H]1CCN(c2nc3ccccc3o2)C[C@H]1O)c1cnccn1` as the compound, how does the cytotoxicity at 70.5 h read?
Its cytotoxicity at 70.5 h is -9.1%.

With `Cc1nnc(CN2CCN(C)C3(CCNC(=O)CC3)C2)s1` (stereo unspecified) as the compound, how does the cytotoxicity at 70.5 h read?
Its cytotoxicity at 70.5 h is 2.04%.

With `Cc1cc(=O)[nH]c(NCCNC(=O)CN2CCCCCC2)n1` as the compound, how does the cytotoxicity at 70.5 h read?
The cytotoxicity at 70.5 h was 15.9%.

Which cytotoxicity at 70.5 h does the source give for `O=C(NC1CC1)C1CN(c2nc3ccccc3s2)CCN1` (stereo unspecified) here?
Its cytotoxicity at 70.5 h is -7.94%.

With `CC(C)CCn1c(=O)n(CCn2cccc2)c2cc(C(=O)O)cnc21` as the compound, how does the cytotoxicity at 70.5 h read?
The cytotoxicity at 70.5 h was -7.02%.

For `COCc1cc(N(C)CCc2c(C)n[nH]c2C)ncn1`, which cytotoxicity at 70.5 h is on record?
The cytotoxicity at 70.5 h was 5.69%.

With `COc1ccnc(CNc2nc(C)nc(C)c2C)c1` as the compound, how does the cytotoxicity at 70.5 h read?
The cytotoxicity at 70.5 h was 3%.

Which cytotoxicity at 70.5 h does the source give for `CSCC[C@H](N)C(=O)N1CC(Oc2ccccc2C)C1` here?
Its cytotoxicity at 70.5 h is -3.44%.

For `CCN1CC(C(=O)NCCn2cccc2)CC1=O` (stereo unspecified), which cytotoxicity at 70.5 h is on record?
Its cytotoxicity at 70.5 h is -4.38%.

Which cytotoxicity at 70.5 h does the source give for `Cc1cnn(C(C)C2CC2)c1NC(=O)c1ccc(Cn2cnnn2)cc1` (stereo unspecified) here?
The cytotoxicity at 70.5 h was -10.2%.

With `O=c1cnc2ccccc2n1CCCn1ccnc1` as the compound, how does the cytotoxicity at 70.5 h read?
Its cytotoxicity at 70.5 h is -16.2%.

Which cytotoxicity at 70.5 h does the source give for `O=C(COc1cccnc1)NCc1nncn1C1CCCCC1` here?
Its cytotoxicity at 70.5 h is -5.77%.

Which cytotoxicity at 70.5 h does the source give for `COCCn1ccnc1C1CCCN(C(=O)c2ccncc2F)C1` (stereo unspecified) here?
Its cytotoxicity at 70.5 h is 11%.

With `Cc1cnn(C2(C(=O)O)CCN(c3ccncc3F)CC2)c1` as the compound, how does the cytotoxicity at 70.5 h read?
The cytotoxicity at 70.5 h was -5.87%.

With `CCc1ccc2occ(CC(=O)N3CCC4(CCCN(C)C4=O)C3)c2c1` (stereo unspecified) as the compound, how does the cytotoxicity at 70.5 h read?
Its cytotoxicity at 70.5 h is -9.34%.

With `Clc1cccnc1N1CCC(C2CCN(Cc3cccnc3)CC2)C1` (stereo unspecified) as the compound, how does the cytotoxicity at 70.5 h read?
The cytotoxicity at 70.5 h was 25.7%.

Which cytotoxicity at 70.5 h does the source give for `Cc1nn(C)c2nc(N(CCN(C)C)C3CCCC3)sc12` here?
The cytotoxicity at 70.5 h was 2.63%.

Which cytotoxicity at 70.5 h does the source give for `O=C1CC(NCc2cccc(O)c2)CN1CCc1cccc(Cl)c1` (stereo unspecified) here?
The cytotoxicity at 70.5 h was 14.8%.

Which cytotoxicity at 70.5 h does the source give for `O=C(CCc1ccco1)N1CCC(Oc2ccccc2)(C(=O)O)CC1` here?
Its cytotoxicity at 70.5 h is 2.91%.

Which cytotoxicity at 70.5 h does the source give for `CCC(Nc1cccc(OC)c1)C(=O)NCc1nc(C)cc(=O)[nH]1` (stereo unspecified) here?
Its cytotoxicity at 70.5 h is -5.76%.

With `CCN(CC)Cc1cc(C(=O)N2CCC3(CCN(C)CC3)C2)c(C)o1` as the compound, how does the cytotoxicity at 70.5 h read?
The cytotoxicity at 70.5 h was -14.5%.

Which cytotoxicity at 70.5 h does the source give for `Cc1[nH]ccc1C(=O)N[C@H]1CN(CCO)C[C@@H]1C1CC1` here?
Its cytotoxicity at 70.5 h is -6.42%.

For `CCc1cccc(OC2CN(C(=O)[C@@H](N)CCSC)C2)c1`, which cytotoxicity at 70.5 h is on record?
Its cytotoxicity at 70.5 h is -1.91%.

With `CC(C)c1cc(=O)[nH]c(-c2ccccc2CN2CCCC2C)n1` (stereo unspecified) as the compound, how does the cytotoxicity at 70.5 h read?
The cytotoxicity at 70.5 h was -19.9%.

For `Cc1ncc(CN2CCC(n3cc(-c4ccc(F)cc4)nn3)CC2)cn1`, which cytotoxicity at 70.5 h is on record?
Its cytotoxicity at 70.5 h is -2.17%.

Which cytotoxicity at 70.5 h does the source give for `OCCc1ccccc1-n1ccnc1-c1cn(C2CCNCC2)nn1` here?
The cytotoxicity at 70.5 h was 27.2%.

Which cytotoxicity at 70.5 h does the source give for `Cc1nc(N)cc(N2CCCC(COc3cccc(F)c3)C2)n1` (stereo unspecified) here?
Its cytotoxicity at 70.5 h is -16.1%.

With `Cn1ccc2c(-c3ccc(NCCO)nn3)ccnc21` as the compound, how does the cytotoxicity at 70.5 h read?
The cytotoxicity at 70.5 h was -9.8%.

For `CCOc1ccc(CC(=O)N2C[C@H](C3CC3)[C@@H](N)C2)cc1`, which cytotoxicity at 70.5 h is on record?
Its cytotoxicity at 70.5 h is 37.4%.

Which cytotoxicity at 70.5 h does the source give for `O=C(CCn1cc(Cl)cn1)N1CCC2(CC1)[C@H](O)C[C@@H]2OCCO` here?
Its cytotoxicity at 70.5 h is -1.08%.

Which cytotoxicity at 70.5 h does the source give for `CCC(CC)Cn1ncc(N2CCOCC2)cc1=O` here?
Its cytotoxicity at 70.5 h is -1.42%.

For `O=C(C1CC1)N1CCC(C(=O)N2CCC(c3ccc(F)cc3)C2)CC1` (stereo unspecified), which cytotoxicity at 70.5 h is on record?
The cytotoxicity at 70.5 h was 8.64%.

For `O=C(NCc1ccc2c(c1)CCCO2)c1ccc(C2CCNC2)cc1` (stereo unspecified), which cytotoxicity at 70.5 h is on record?
Its cytotoxicity at 70.5 h is -18%.
